Where two headings read alike, the source gives them in different places.
Tests used:
murine fibroblasts = conditions: for % Cell Survival: murine fibroblasts treated with 50 micromolar erastin, plate dilution assay; for Level of protection against LPO induced cell death relative to 13,13-D2-arachidonic acid: murine fibroblasts, 50 micromolar erastin
Procedure: In this example, two different pools of cells were each seeded in 48-well plates and treated with 50 micromolar of erastin.
Afterwards, cell viability was measured by plate dilution assay to distinguish between cells that are alive and those that are dead on a Petri dish.

[1] = Determination of D2-AA and D2-LA concentrations in CSF and RBCs in a single patient (Example 1)
Source text: This example determines the relative concentration of D2-AA in the CSF and in RBCs in order to determine a correlation between these two concentrations. Specifically, a patient was continuously provided with a daily dose of 9 grams of D2-LA ethyl ester (which is 8.64 grams of active discounting for impurities and removal of the ethyl ester) over about a six-month period. Periodic samples of blood and CSF were taken and the concentration of both D2-LA and D-2AA in both the RBCs and the CSF were measured. In all cases, the D2-AA was obtained by deacylation of the ethyl ester of linoleic acid in the gastrointestinal tract followed by conversion of D2-LA in vivo to D2-AA.

[2] = INAD children, 3.9 grams D2-LA ethyl ester daily for 1 month then 2.9 grams
Procedure: In this example, children suffering from INAD were treated with a daily dose of 3.9 grams of D2-LA ethyl ester followed by 2.9 grams of D2-LA ethyl ester. Given the age and weight of these children, such is assumed to be substantially equivalent to a loading dose of from about 7 and about 12 grams per day for an adult patient for an adult patient and a maintenance dose which is less than the loading dose again for an adult patient.
This example also determines the concentration of D2-AA in RBCs. Specifically, a cohort of 14 children was provided with a daily dose of 3.9 grams of D2-LA ethyl ester for 1 month followed by 2.9 grams of D2-LA ethyl ester for the remaining six-month period. Blood samples were taken at 3 months for all but 1 child and at 6 months for all children. The concentration of D2-AA in RBCs was measured.

[3] = ALS patients on D2-LA; based on total AA and D2-AA; 'when calculated'
Procedure: (§1) Patients suffering from ALS were treated with D2-LA over a period of time. […] Some patients were provided 2 grams of 11,11-D-2 LA per day as opposed to the loading dose of 9 grams per day.
(§2) Functional scores for each of the patients (ALSFRS-R results) at the end of therapy were compared to the natural history scores at the start of therapy.

[4] = 6 months; 15 INAD infants treated
patients with ALS = assay: ALSFRS-R rate of functional decline in ALS patients on primer/maintenance dosing regimen (Example 3); assay type: in vivo, human; conditions: for Annualized average reduction in the rate of disease progression: 9 grams then 5 grams daily, vs natural history
Procedure: As set forth in the examples below, the rate of functional decline is predicated on measuring an individual's, or a cohort's, average for the natural history of disease progression. Next, the individual or cohort average for the functional decline is determined at a period of time such as at 3, 6 or 12 months after initiation of therapy. The rate of decline based on the average of the natural history of the cohort is set as the denominator. The numerator is set as the delta between the rate of the natural history of disease progression and the rate of functional decline after a set period of treatment per this invention. The resulting fraction is the multiplied by 100 to give a percent change. The following exemplifies this analysis.
This example illustrates the reduction in the rate of disease progression in patients with ALS treated by the dosing methods described herein, this example evidences that the amount of oxidized PUFA products has been reduced to a level that allows the otherwise impaired regulatory enzymes are able to neutralize substantially all of these oxidized products now generated. Specifically, a cohort of 3 patients was placed on a dosing regimen consisting of a first dosing component (primer dose) of about 9 grams of D2-LA ethyl ester daily for a period of at least 30 days and then all three patients were transitioned to a second dosing component (maintenance dose) of 5 grams of D2-LA ethyl ester.
The functionality of each of the patients was evaluated periodically using the ALSFRS-R protocol. The patients continued on the dosing regimen for a period of 6 months (patient A) or 1 year (patient B) or for 9 months (patient C). Patient C died at the end of 9 months and their death was attributed to factors other than ALS cardiomyopathy. Before initiation of therapy, the natural history of each patient in the cohort was determined and an average annual rate of functional decline was measured at 21.
The annualized progression of the disease, as measured by an average annual rate of functional decline for all three patients starting at the time that dosing began and terminating at the end of the dosing regimen and then annualized as described above, was measured as 2.1. Using the formula described above, one obtains the following: […]

[5] = test system: patients suffering from ALS; assay: ALSFRS-R rate of functional decline in ALS patients treated with D2-LA (Comparative Example A); assay type: in vivo, human
Procedure: as §1, §2

[6] = test system: infants suffering from INAD; assay: Open label treatment study of INAD patients (Example 6); assay type: in vivo, human
Procedure: Novel and conventional developmental neurologic assessment scales appropriate to the disease and which measure vital function in different parts of the brain were applied at base line and at 6 monthly intervals and the health and well-being of the infants were assessed continuously for 1-2 years, including any aspiration pneumonia, hospitalizations and deaths.

[7] = 3 months, single patient, daily 9 grams D2-LA ethyl ester
[8] = 6 months, single patient, daily 9 grams D2-LA ethyl ester

## [2H]C([2H])(/C=C\CCCCC)/C=C\C([2H])([2H])/C=C\C([2H])([2H])/C=C\CCCC(=O)O
Murine fibroblasts
  % Cell Survival: 70.2%
  Level of protection against LPO induced cell death relative to 13,13-D2-arachidonic acid: approximately twice the level of protection
Murine fibroblasts; listed as D6-AA
  Level of protection against LPO induced cell death relative to 13,13-D2-arachidonic acid: about 2

## [2H]C([2H])(/C=C\C/C=C\C/C=C\CCCC(=O)O)/C=C\CCCCC [D2-AA, 13,13-D2-Arachidonic Acid]
[1]; 1 month, extrapolated from 3 and 6 month values (FIG. 1)
  Amount of D2-AA in RBCs at 1 month, estimated by linear extrapolation: about 3%
[1]; 1 month, single patient, daily 9 grams D2-LA ethyl ester, based on arachidonic acid + deuterated arachidonic acid
  Concentration of D2-AA in CSF: 8%
[1]; [7]
  Concentration of D2-AA in RBCs: 11.8%
[1]; [8]
  Concentration of D2-AA in RBCs: 16.7%
[2]; 3 months
  Average concentration of D2-AA in the RBCs: 12%
[2]; 6 months
  Average concentration of D2-AA in the RBCs: 16.7%
[3]
  Amount of D2-AA in the patients' RBCs, average: about 3%
Murine fibroblasts
  % Cell Survival: 33.2%
[4]
  Average plasma level of D2-AA: 17.4%

## [2H]C([2H])(/C=C\CCCCC)/C=C\CCCCCCCC(=O)OCC [D2-LA ethyl ester, 11,11-D2-linoleic acid ethyl ester]
Patients with ALS; Patient A, 6 months on regimen, NH rate of decline −16
  Functional Rate Decline During Therapy: −3
Patients with ALS; Patient B, 1 year on regimen, NH rate of decline −31
  Functional Rate Decline During Therapy: −2
Patients with ALS; Patient C, 9 months on regimen, NH rate of decline −16
  Functional Rate Decline During Therapy: −1.3
Patients with ALS; cohort of 3 ALS patients
  Annualized average reduction in the rate of disease progression: 90%
Patients with ALS; cohort of 3 ALS patients, about 9 grams daily at least 30 days then 5 grams, natural history 21
  Average annual rate of functional decline (ALSFRS-R) during dosing, annualized: 2.1

## [2H]C([2H])(/C=C\CCCCC)/C=C\CCCCCCCC(=O)O [D2-LA, 11,11-D2-Linoleic Acid]
[1]; 1 month, single patient, daily dose of 9 grams of D2-LA ethyl ester
  Concentration of D2-LA in CSF: 19.8%
[1]; [7]
  Concentration of D2-LA in RBCs: 34.7%
[1]; [8]
  Concentration of D2-LA in RBCs: 34.5%
[5]; different dosing amounts and periods of D2-LA (some 2 grams per day), pre-treatment −14.2+/−4.4
  Annualized rate of decline (ALSFRS-R) during treatment: −7.6+/−1.4 per year
[5]; p=0.07, paired t-test for within-subject change in slope
  Reduction in rate of decline vs pre-treatment: 46%
Patients with ALS; cohort of 3 ALS patients
  Annualized average reduction in the rate of disease progression: ~90%
[6]; 19 INAD infants treated
  Deaths due to other causes: 2
  Non-fatal pneumonia: 2
[6]; 19 INAD infants treated at least 1 year and up to 2.5 years
  Serious events: 4
[6]; 19 INAD infants treated at least 1 year and up to 2.5 years, natural history 10/37
  No. of Aspirations resulting in pneumonias: 2/19
[6]; 19 INAD infants treated, mortality from pneumonias, natural history 21.6%
  Percent mortality: 0%
[6]; 19 INAD infants treated, natural history 8
  Fatal Pneumonias: 0
[6]; 19 INAD infants treated, natural history 27.0%
  Percent Pneumonias: 10.5%
[6]; 19 subjects over 2.5 years treatment
  Deaths due to aspiration pneumonia: no deaths due to aspiration pneumonia
